Assay results published in patent US9611276B2, “Imidazo bicyclic iminium compounds as antitumor agents” (THE BOARD OF TRUSTEES OF THE LELAND STANFORD JUNIOR …, priority 2012, dated 2017).

Each molecule was assayed on BCC cell line (assay: Murine basal cell carcinoma (BCC) cell proliferation). Details: not given.
Type: cell-based, mouse
Source text: (§1) Murine basal cell carcinomas (BCCs) were derived from Ptch1+/−; p53−/− mice subjected to UV radiation [Aszterbaum et al., Nat. Med. (1999) 5:1285-91]. A line resistant to the Smo antagonist SANT-1 was obtained by culturing the cells in media containing increasing concentrations of the inhibitor until the majority of cells were killed and resistant clones emerged.

SMILES	Proliferation of original BCC cell line
CCOc1ccc(-[n+]2cc(-c3ccc(-c4ccccc4)cc3)n3c2CCCCC3)cc1 [Compound A-8]	able to block the proliferation

Same assay, conditions: 750 nM, dose-dependent

SMILES	BCC proliferation
CCOc1ccc(-[n+]2cc(-c3ccc(-c4ccccc4)cc3)n3c2CCCCC3)cc1 [Compound A-8]	20 % of control

The molecules below were run on Gli2 (assay: Gli2 trafficking assay in NIH 3T3 cells). Details: ShhN treatment.
Type: cell-based
Description: NIH 3T3 cells were also employed in an assay to quantify Gli2 trafficking NIH-3T3 cells were seeded into 24-well plates containing poly-D-lysine-coated 12-mm glass coverslips (65,000 cells/well) and cultured for 24 hrs. […] Each compound or vehicle treatment was conducted in biological triplicates in the presence or absence of 10% (v/v) ShhN-conditioned medium. The cells were subsequently fixed in PBS containing 4% (v/v) paraformaldehyde for 12 min at room temperature, washed three times with PBS, permeabilized in PBS containing 0.5% (v/v) Triton X-100 for 5 min, and washed again twice in PBS. […] After three PBS washes, the coverslips were mounted onto slides using Prolong Gold Antifade Reagent with DAPI (Invitrogen, P36931). The cells were imaged using a Plan Apochromat 63×/1.4-0.6 oil immersion objective on an upright Leica DM4500B compound microscope. Ciliary Gli2 levels were quantified by determining total pixel intensity within a circular region manually placed at the distal end of each cilium and subtracting background fluorescence in an adjacent region of equivalent size. A total of 30 cilia from three coverslips were analyzed to determine the average ciliary Gli2 level for each experimental condition as a measure of Gli2 trafficking.

SMILES	Effect on ShhN-induced Gli2 accrual at the ciliary distal tip
CC1=C2C[C@H]3[C@@H](CC=C4C[C@@H](O)CC[C@@]43C)[C@@H]2CC[C@]12O[C@@H]1C[C@H](C)CN[C@H]1[C@H]2C [cyclopamine, reference compound]	cyclopamine-sensitive

These molecules were tested against T1, Smo (Mus musculus, UniProt P56726) (assay: Smo trafficking assay in NIH 3T3 cells). Details: Hh-responsive cells, ShhN stimulation.
T1 construct: endogenous in cells; host or cells: NIH 3T3
T1 sequence (P56726 33-793): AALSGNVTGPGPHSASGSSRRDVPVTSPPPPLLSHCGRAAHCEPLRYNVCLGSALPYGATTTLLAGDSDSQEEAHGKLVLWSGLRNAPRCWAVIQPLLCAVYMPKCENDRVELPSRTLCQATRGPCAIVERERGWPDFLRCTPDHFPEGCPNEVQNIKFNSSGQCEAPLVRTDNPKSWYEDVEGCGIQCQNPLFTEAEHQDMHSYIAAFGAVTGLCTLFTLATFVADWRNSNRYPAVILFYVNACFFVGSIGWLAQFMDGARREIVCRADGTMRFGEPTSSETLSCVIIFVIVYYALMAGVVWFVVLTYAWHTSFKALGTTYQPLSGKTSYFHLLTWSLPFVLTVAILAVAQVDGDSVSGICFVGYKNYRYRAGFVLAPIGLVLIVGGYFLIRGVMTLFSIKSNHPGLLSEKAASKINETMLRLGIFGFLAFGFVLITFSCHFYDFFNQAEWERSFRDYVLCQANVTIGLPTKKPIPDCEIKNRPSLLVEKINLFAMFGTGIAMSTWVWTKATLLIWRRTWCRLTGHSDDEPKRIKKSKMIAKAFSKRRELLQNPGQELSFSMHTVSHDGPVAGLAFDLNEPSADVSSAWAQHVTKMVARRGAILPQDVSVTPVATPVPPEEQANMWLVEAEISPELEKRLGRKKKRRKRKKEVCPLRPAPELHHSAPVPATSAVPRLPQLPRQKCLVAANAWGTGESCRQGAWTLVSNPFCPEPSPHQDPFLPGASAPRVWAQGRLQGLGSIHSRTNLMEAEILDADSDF
Type: cell-based
Source text: The cells were imaged using a Plan Apochromat 63×/1.4-0.6 oil immersion objective on an upright Leica DM4500B compound microscope.

SMILES	Effect on Smo localization / trafficking
CC1=C2C[C@H]3[C@@H](CC=C4C[C@@H](O)CC[C@@]43C)[C@@H]2CC[C@]12O[C@@H]1C[C@H](C)CN[C@H]1[C@H]2C [cyclopamine, reference compound]	alters Smo trafficking

What follows are molecules tested on Hh pathway activity (assay: Sufu-KO-LIGHT cell assay, Gli-dependent firefly luciferase reporter). Details: Mus musculus.
Type: cell-based, mouse
Description: Sufu-KO-LIGHT cells were derived from Sufu knockout mouse embryonic fibroblasts according to the method of Chen et al. [Genes Dev. 2009; 23(16):1910-28.] The cells were co-transfected with the zeocin resistance vector (pVgRXR, Invitrogen) and a firefly luciferase reporter driven by eight Gli binding sites and a γ-crystallin basal promoter (8XGliBS-FL) [see Sasaki et al. Development. 1997; 124(7):1313-22.2]. […] Sufu-KO-LIGHT cells were cultured in DMEM (Invitrogen, 11965) containing 10% (v/v) fetal bovine serum (Invitrogen, No. 26140), 150 μg/mL zeocin (Invitrogen, R250-01), 1 mM sodium pyruvate (Invitrogen, 11360) and 1× PenStrep (Gibco, 15140).
All test compounds were dissolved in DMSO at 50 mM, serially diluted by 1:3, 1:4 or 1:5 in a 96-well translucent microplate (Greiner bio-one, 650201) and stored at −20° C. These serial dilutions were added to assay media freshly with final DMSO concentration of 0.2% (v/v).
The Sufu-KO-LIGHT cell assay provides a measure of Hh pathway activity and cytotoxicity. Sufu-KO-LIGHT cells were seeded into a 96-well plate (35,000 cells/well), cultured to confluency for 24 hrs and then incubated with test compounds in DMEM without phenol red (Invitrogen, 26140) containing 0.5% (v/v) fetal bovine serum (Invitrogen, No. 26140), 150 μg/mL zeocin (Invitrogen, R250-01), 1 mM sodium pyruvate (Invitrogen, 11360), 1× PenStrep (Gibco, 15140) for 16 hrs. Bright Glo (Promega, E2620) reagent (50 μL/well) was added to the cells, and luciferase activities were determined on a microplate luminometer (Veritas). To assess cytotoxicity, after 15 hrs of incubation with test compounds, CellTiter 96 AQueous One Solution Cell Proliferation Assay (Promega, G3580) reagent (20 μL/well) was added. Cell viability was determined by measuring absorption at 490 nm after 1 hr of incubation on a microplate spectrophotometer (Benchmark Plus, Bio-Rad). Biological triplicates were analyzed for each test compounds.

SMILES	IC50
Brc1ccc(-c2c[n+](-c3ccccc3)c3n2CCCCC3)cc1 [Compound A-2]	7.9 µM
COc1ccccc1-[n+]1cc(-c2ccc(Br)cc2)n2c1CCCCC2 [Compound A-3]	0.34 µM
Brc1ccc(-c2c[n+](-c3ccc4c(c3)OCCO4)c3n2CCCCC3)cc1 [Compound A-4]	5 µM
FC(F)(F)c1cccc(-[n+]2cc(-c3ccc(Br)cc3)n3c2CCCCC3)c1 [Compound A-5]	12.3 µM
Clc1ccc(-[n+]2cc(-c3ccc(Br)cc3)n3c2CCCCC3)cc1 [Compound A-6]	11.7 µM
COc1ccc(-c2c[n+](-c3ccc(Br)cc3)c3n2CCCCC3)cc1 [Compound A-15]	3.3 µM

Same assay, conditions: Mus musculus; Table 1; assay not given, A-1 value equals the Sufu-KO-LIGHT value; read-out: IC50

SMILES	IC50
CCOc1ccc(-[n+]2cc(-c3ccc(Cl)cc3)n3c2CCCCC3)cc1 [Compound A-7]	3 µM
CCOc1ccc(-[n+]2cc(-c3ccc(-c4ccccc4)cc3)n3c2CCCCC3)cc1 [Compound A-8]	0.19 ± 0.14 µM
CCOc1ccc(-[n+]2cc(-c3ccccc3)n3c2CCCCC3)cc1 [Compound A-9]	1.7 µM
CCOc1ccc(-[n+]2cc(-c3ccc(OC)cc3)n3c2CCCCC3)cc1 [Compound A-10]	2.5 µM
COc1ccc(-[n+]2cc(-c3ccc(Cl)cc3)n3c2CCCCC3)cc1 [Compound A-11]	2.5 µM
COc1ccc(-[n+]2cc(-c3ccc(OC(F)F)cc3)n3c2CCCCC3)cc1 [Compound A-12]	13.9 µM
FC(F)Oc1ccc(-[n+]2cc(-c3ccc(Cl)cc3)n3c2CCCCC3)cc1 [Compound A-13]	17.5 µM
CCOc1ccc(-c2c[n+](-c3cccc(C(F)(F)F)c3)c3n2CCCCC3)cc1 [Compound A-16]	7.4 µM
CCc1ccc(-[n+]2cc(-c3ccc(OC(F)F)cc3)n3c2CCCCC3)cc1 [Compound A-17]	2.9 µM
CCOc1ccc(-c2c[n+](-c3ccccc3OC)c3n2CCCCC3)cc1 [Compound A-18]	0.08 µM
COc1ccccc1-[n+]1cc(-c2ccc(-c3ccccc3)cc2)n2c1CCCCC2 [Compound A-19]	0.03 µM

Same assay, conditions: Mus musculus; Table 2; assay not given; read-out: IC50

SMILES	IC50
CCOc1ccc(-[n+]2c(-c3ccc(OC)cc3)cn3c2CCCCC3)cc1 [Compound C-1]	1.6 µM
COc1ccc(-c2cn3c([n+]2-c2ccccc2OC)CCCCC3)cc1 [Compound C-2]	3.1 µM
COc1ccc(-c2cn3c([n+]2-c2ccc(C)cc2)CCCCC3)cc1 [Compound C-3]	4.2 µM
COc1ccc(-c2cn3c([n+]2-c2ccc(Cl)cc2)CCCCC3)cc1 [Compound C-4]	11.5 µM
CCOc1ccc(-c2c(C)n3c([n+]2-c2ccc(OCC)cc2)CCCCC3)cc1 [Compound C-5]	1.2 µM
COc1ccc(-[n+]2c(-c3ccc(Cl)cc3)cn3c2CCCCC3)cc1 [Compound C-6]	11.7 µM
COc1ccc(-[n+]2c(-c3ccc(OC(F)F)cc3)cn3c2CCCCC3)cc1 [Compound C-7]	6.3 µM
COc1ccc(-[n+]2c(-c3ccccc3)cn3c2CCCCC3)cc1 [Compound C-8]	4.1 µM
Clc1ccc(-c2cn3c([n+]2-c2ccc(Cl)cc2)CCCCC3)cc1 [Compound C-9]	27 µM

Same assay, conditions: Mus musculus; Table 3; assay not given; read-out: IC50

SMILES	IC50
CCOc1ccc(-[n+]2cc(-c3ccccc3)n3c2CCC3)cc1 [Compound D-1]	0.96 µM
COc1ccc(-c2c[n+](-c3ccc(OC)cc3)c3n2CCS3)cc1 [Compound D-2]	3.1 µM
COc1ccc(-[n+]2cc(-c3ccc(C)cc3)n3c2SC(C)C3)cc1 [Compound D-3]	1.1 µM
COc1ccc(-[n+]2cc(-c3ccc(Br)cc3)n3c2SCC3C)cc1 [Compound D-4]	2.6 µM
COc1ccc(-[n+]2cc(-c3ccc(Cl)cc3)n3c2SCCC3)cc1 [Compound D-5]	2.4 µM
COc1ccc(-c2c[n+](-c3ccc(OC)cc3)c3n2CCOC3)cc1 [Compound D-6]	14.1 µM
CCOc1ccc(-c2c[n+](-c3ccc(OC)cc3)c3n2-c2ccccc2CC3)cc1.[Br-] [Compound E-1]	0.14 µM

These molecules were tested on BCC allograft tumors (assay: Murine BCC allograft model). Details: 0.01% solution, topical, day 14.
Type: in vivo, mouse
Description: Murine BCC allograft model: Ptch1+/−; K14:Cre-ER2; p53fl/fl mice were injected with tamoxifen (to knock out p53) at six weeks of age, and at 8 weeks of age they were given one dose of 4 Gy of ionizing radiation. After BCCs formed and grew to 5-7 mm in diameter (typically between 6-8 months of age), they were harvested and dissociated to prepare a cell suspension. A mixture of the cell suspension and Matrigel was then injected subcutaneously into NOD/SCID mice purchased from Jackson Laboratories. Once the allografted tumors became visible, they were monitored with digital calipers and the volume was estimated by the formula (d^2)*D/2, where d is the smallest diameter of the tumor and D is the largest diameter. The compound was applied topically to the tumor as a DMSO solution (100 μL per application).

SMILES	Tumor volume compared to control
CCOc1ccc(-[n+]2cc(-c3ccc(-c4ccccc4)cc3)n3c2CCCCC3)cc1 [Compound A-8]	reduced tumor volume by half

What follows are molecules tested on SANT-1-resistant BCC line (assay: Proliferation of SANT-1-resistant BCC line). Details: not given.
Type: cell-based, mouse
Source text: as §1

SMILES	Proliferation of SANT-1-resistant line
CCOc1ccc(-[n+]2cc(-c3ccc(-c4ccccc4)cc3)n3c2CCCCC3)cc1 [Compound A-8]	able to block the proliferation

Each molecule was assayed on medulloblastoma allograft tumors (assay: Murine medulloblastoma allograft model). Details: 2 mg/kg/day, intraperitoneal, day 5.
Type: in vivo, mouse
Description: Murine medulloblastoma allograft model: Ptch1+/−; p53+/−; Math1:GFP mice were mated to generate pups with the appropriate genotype of Ptch1+/−; p53−/−; Math1:GFP. These mice will get medulloblastoma tumors when they are 6 to 10 weeks of age. The primary medulloblastoma tumors were harvested, dissected, dissociated by papain treatment and tissue trituration, and injected into the flanks of nude mice as a Matrigel mixture (50 μL of 2×10^7 tumor cells mixed with 50 μL of Matrigel). Secondary and tertiary tumors can subsequently be derived from these allografts as necessary. The length, width, and depth of each allograft were monitored, and compound testing began when the tumors reached a volume of 150 mm3 (approximately one week after tumors were first visible). The compounds were dissolved in a minimum volume of DMSO, and the DMSO solution was mixed with sterile corn oil so that the DMSO constituted less than 10% of the total volume. The drug was administered by intraperitoneal injection (50 μL), with each daily dose divided into two portions and administered at 12-hour intervals. The Smoothened antagonist vismodegib was administered at 50 mg/kg/day as a positive control.

SMILES	Tumor volume compared to control
CCOc1ccc(-c2c[n+](-c3ccc(OC)cc3)c3n2-c2ccccc2CC3)cc1.[Br-] [Compound E-1]	reduced tumor volume by half
